The record followed here is patent US20220081435A1, “ANDROGEN RECEPTOR PROTEIN DEGRADERS” (THE REGENTS OF THE UNIVERSITY OF MICHIGAN, priority 2019, published 2022).

What all share (type): cell-based
One test relates to VCaP cells. Briefly: Cell growth inhibition in VCaP cells (WST-8 assay). The protocol: VCaP were treated with different compounds in charcoal stripped medium in the presence of 0.1 nM of AR agonist R1881 for 7 days. Cell viability was determined by a WST-8 assay.
(§1) Cell lines and Cell Culture: All the LNCaP, VCaP and 22RV1 cells used were purchased from American Type Culture Collection (ATCC). LNCaP and 22RV1 cells were grown in RPMI 1640 (Invitrogen), VCaP cells were grown in DMEM with Glutamax (Invitrogen). All of the cells were supplemented with 10% fetal bovine serum (Invitrogen) at 37° C. in a humidified 5% CO2 incubator.
Background: Formazan colour is commonly taken as a measure of viable cells.

For another test, the system named is LNCaP cells. The experiment in a line: Cell growth inhibition in LNCaP cells (WST-8 assay). The protocol: LNCaP were treated with different compounds in charcoal stripped medium in the presence of 0.1 nM of AR agonist R1881 for 7 days. Cell viability was determined by a WST-8 assay.
as §1

The subject of the next test is 22RV1 cells. The experiment in a line: Cell growth inhibition in 22RV1 cells (WST-8 assay). The protocol:
22RV1 cells were treated with a regular culture medium for 7 days. Cell viability was determined by a WST-8 assay.
Cell lines and Cell Culture: All the LNCaP, VCaP and 22RV1 cells used were purchased from American Type Culture Collection (ATCC). […] All of the cells were supplemented with 10% fetal bovine serum (Invitrogen) at 37° C. in a humidified 5% CO2 incubator.

In test [1] the target is T1, AR protein (Homo sapiens, UniProt P10275, T878A).
T1 construct: The percent AR protein degradation induced by these compounds at various concentrations in LNCaP cells; host or cells: LNCaP
T1 sequence (P10275 1-920 T878A): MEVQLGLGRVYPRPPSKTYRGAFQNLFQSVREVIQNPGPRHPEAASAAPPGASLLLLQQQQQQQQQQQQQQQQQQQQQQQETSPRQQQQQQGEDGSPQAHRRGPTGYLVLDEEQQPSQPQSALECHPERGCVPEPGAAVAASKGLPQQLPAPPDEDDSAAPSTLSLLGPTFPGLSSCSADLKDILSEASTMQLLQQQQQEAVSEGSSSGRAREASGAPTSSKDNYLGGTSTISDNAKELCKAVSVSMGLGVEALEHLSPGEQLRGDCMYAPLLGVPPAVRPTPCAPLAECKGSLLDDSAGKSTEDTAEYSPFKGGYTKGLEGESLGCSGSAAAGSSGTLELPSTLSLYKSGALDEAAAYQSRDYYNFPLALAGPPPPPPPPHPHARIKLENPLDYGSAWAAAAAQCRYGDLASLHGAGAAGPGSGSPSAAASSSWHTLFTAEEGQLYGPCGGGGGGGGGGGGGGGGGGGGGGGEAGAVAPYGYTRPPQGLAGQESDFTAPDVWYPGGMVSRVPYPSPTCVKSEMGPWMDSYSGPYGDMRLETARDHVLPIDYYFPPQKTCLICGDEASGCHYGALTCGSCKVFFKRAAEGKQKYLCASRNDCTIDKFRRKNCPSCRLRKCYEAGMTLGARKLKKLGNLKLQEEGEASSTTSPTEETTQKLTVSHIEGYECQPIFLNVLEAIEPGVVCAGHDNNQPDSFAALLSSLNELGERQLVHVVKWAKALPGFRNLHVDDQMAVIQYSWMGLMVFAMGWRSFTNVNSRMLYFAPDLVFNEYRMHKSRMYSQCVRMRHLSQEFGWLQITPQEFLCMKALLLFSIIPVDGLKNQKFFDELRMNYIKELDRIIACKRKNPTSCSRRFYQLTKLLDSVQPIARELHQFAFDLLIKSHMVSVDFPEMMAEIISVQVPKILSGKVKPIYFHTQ
The experiment in a line: AR protein degradation in LNCaP cells (Western blotting). The note with it: for % AR protein degradation in LNCaP Cells: treatment time 6 h, average of three independent experiments. The method in brief:
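LNCaP cells were cultured with 10% FBS at 37° C and lysed in RIPA buffer after treatment. AR levels were measured by Western blot. Degradation percentage was quantified by densitometry as the background-corrected AR band relative to the loading control.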
(Immunoblotting shows a protein as a band on a membrane.)

Test [2] relates to AR protein. The experiment in a line: AR protein degradation in 22RV1 cells (Western blotting). As to the method: as §1
Western Blotting. Treated cells were lysed by RIPA buffer supplemented with protease and phosphatase inhibitors. The cell lysates were separated by 4-12% SDS-PAGE gels and blotted into PVDF membranes. Software ImageJ was used to quantify the percentage of AR degradation. The net protein bands and loading controls are calculated by deducting the background from the inverted band value. The final relative quantification values are the ratio of net band to net loading control.

The mark [3] stands for this setting: charcoal stripped medium, 0.1 nM R1881, 7 days.

Consider `Cc1ncsc1-c1ccc([C@H](CC(=O)N2CCC(N3CCC(C#Cc4ccc(C(=O)NC5C(C)(C)C(Oc6ccc(C#N)c(Cl)c6)C5(C)C)cc4)CC3)CC2)NC(=O)[C@@H]2C[C@@H](O)CN2C(=O)[C@@H](NC(=O)C2(F)CC2)C(C)(C)C)cc1` (stereo partly drawn) [Compound 34, (2S,4R)—N—((S)-3-(4-((4-(((1r,3r)-3-(3-Chloro-4-cyanophenoxy)-2,2,4,4-tetramethyl-cyclobutyl)carbamoyl)phenyl)ethynyl)-[1,4′-bipiperidin]-1′-yl)-1-(4-(4-methylthiazol-5-yl)phenyl)-3-oxopropyl)-1-((S)-2-(1-fluorocyclopropane-1-carboxamido)-3,3-dimethylbutanoyl)-4-hydroxypyrrolidine-2-carboxamide], for which the “Potency relative to enzalutamide (4) and compound 6 in cell growth inhibition” value with VCaP cells, in the test with LNCaP cells and with 22RV1 cells (22RV1) was more than 100 times each time. In addition, the IC50 with VCaP cells (setting [3]) was 0.34 nM; in the test with LNCaP cells (setting [3]) it was 0.25 nM; in the test on 22RV1 cells (22RV1, regular culture medium, 7 days), 183 nM. Besides, the “% AR protein degradation in LNCaP Cells” value on AR protein [1] (0.01 μM) stood at 89%; on AR protein [1] (0.1 μM) it was 99%; on AR protein [1] (1 μM) it was 100%. Besides, the AR degradation on AR protein [1] (LNCaP, 10 nM, 24 h treatment) is reported as more than 95%; with AR protein [2] (22RV1, 1 μM, 24 h treatment), “near complete degradation”. For the same compound, the “Time to effective reduction of AR protein level” value at AR protein [1] (LNCaP, 100 nM) is reported as not above 2 h. Moreover, at AR protein [1] (LNCaP, 100 nM, 4 h), the “AR depletion with a 4 h treatment” value is recorded as “near-complete AR depletion”. Besides, the DC50 on AR protein [1] (LNCaP, 24 h treatment, read-out: DC50 (drug concentration that results in 50% protein degradation)) came to 0.86 nM; in the test on AR protein [2] (22RV1, 24 h treatment, read-out: DC50 (drug concentration that results in 50% protein degradation)), 10.4 nM. The “AR degradation (Western blotting, dose-dependent)” value is reported as “partial AR degradation” on AR protein [1] (LNCaP, at 10 nM); “essentially complete AR degradation” at AR protein [1] (LNCaP, at both 100 nM and 1 μM). Further, the “Rank as AR degrader among 32, 34 and 35” value at AR protein [1] (LNCaP, based upon the data obtained at 10 nM) is on record as “most potent”. The “AR degradation after pretreatment with AR antagonist (6), VHL-d, MLN4924 or MG132” value at AR protein [1] (LNCaP, data not shown) is reported as “effectively blocked”.

As a reminder, the IC50 is the concentration needed to halve the response being measured. A lower IC50 goes with greater potency.
